According to paper PMC9481026 (PLoS ONE, 2022):
≈ marks a conversion by molar mass, not a printed value. Read-outs that look alike come from different tables or passages of the source.

Key:
[1] = system: RVFV strain MP-12; test: microbe, parasite or virus in culture; type: cell-based, Rift Valley fever virus; settings: Rift Valley fever virus, Vero
[2] = in vitro; settings: African green monkey, Vero CC50
[3] = system: RVFV MP-12; test: microbe, parasite or virus in culture; type: cell-based, Rift Valley fever virus; settings: Rift Valley fever virus, Vero, read-out: Estimated EC50
[4] = system: C. neoformans; test: microbe, parasite or virus in culture; type: cell-based; settings: Cryptococcus neoformans, read-out: C. neoformans (MIC80, μM)
[5] = system: ZIKV; test: microbe, parasite or virus in culture; type: cell-based, Zika virus
[6] = system: RVFV strain MP-12; test: microbe, parasite or virus in culture; type: cell-based, Rift Valley fever virus; settings: Rift Valley fever virus, A549, 24 h, read-out: A549 EC50
[7] = target: T1, Human RNase H1 (Homo sapiens, UniProt O60930); test: biochemical
T1 construct: made in house; host or cells: E. coli
T1 sequence (O60930 1-286): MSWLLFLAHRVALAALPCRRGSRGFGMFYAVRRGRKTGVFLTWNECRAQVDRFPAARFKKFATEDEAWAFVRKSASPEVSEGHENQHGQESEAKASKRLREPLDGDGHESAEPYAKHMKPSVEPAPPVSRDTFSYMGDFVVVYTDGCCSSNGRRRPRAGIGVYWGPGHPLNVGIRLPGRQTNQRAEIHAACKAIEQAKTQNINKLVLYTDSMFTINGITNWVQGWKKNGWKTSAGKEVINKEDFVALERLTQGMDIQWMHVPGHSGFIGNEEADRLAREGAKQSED

[8] = system: RVFV ZH501; test: microbe, parasite or virus in culture; type: cell-based, Rift Valley fever virus; settings: Rift Valley fever virus, Vero, 18 h
[9] = in vitro; settings: human
[10] = system: LACV; test: microbe, parasite or virus in culture; type: cell-based, La Crosse virus
[11] = system: Staphylo-coccus spp.; test: organism not typed; type: cell-based; settings: read-out: Staphylo-coccus spp. (MIC80, μM)
[12] = system: E. coli; test: microbe, parasite or virus in culture; type: cell-based; settings: Escherichia coli, read-out: E. coli (MIC80, μM)
[13] = system: Vero cells; settings: African green monkey

`Cc1cc(O)c(=O)c(O)cc1C(=O)c1cccs1` [Compound 308] showed an EC50 ([1]; 24 h) of 1.2 µM, an EC50 ([1]; read-out: RVFV (EC50, μM)) of 1.16 µM and an EC50 ([1]; read-out: Vero EC50) of 1.2 µM. The CC50 [2] was > 120 µM, the EC50 [3] was 1.77 µM and the MIC80 [4] was 11 µM (≈ 2.89 µg/mL). For the same compound, the “ZIKV EC50” value [5] was “not the unrelated flavivirus, Zika virus”, the EC50 ([5]; Zika virus, Vero C1008, 48 h, read-out: ZIKV EC50) was > 120 µM and the EC50 [6] was 8.4 µM. It also gave an IC50 [7] of 46 µM, an EC50 [8] of 54 µM and a CC50 [9] of 119 µM. For the same compound, the “LACV EC50” value [10] was “activity against LACV”, the EC50 ([10]; La Crosse virus, Vero C1008, 24 h, read-out: LACV EC50) was 15.1 µM and the MIC80 [11] was 44 µM (≈ 11.5 µg/mL). For the same compound, the MIC80 [12] was 25 µM (≈ 6.56 µg/mL) and the CC50 [13] was 111 µM.
